In article PMC10591846 (Cell reports, 2023):

Tests used:
[1] = tested on: KLHDC10; assay: In vitro peptide binding to KLHDC10; settings: Figure S12
[2] = target: T1, Pirh2 (Homo sapiens, UniProt Q96PM5); assay: In vitro peptide binding to Pirh2; settings: Figure S12
T1 sequence (Q96PM5 1-261): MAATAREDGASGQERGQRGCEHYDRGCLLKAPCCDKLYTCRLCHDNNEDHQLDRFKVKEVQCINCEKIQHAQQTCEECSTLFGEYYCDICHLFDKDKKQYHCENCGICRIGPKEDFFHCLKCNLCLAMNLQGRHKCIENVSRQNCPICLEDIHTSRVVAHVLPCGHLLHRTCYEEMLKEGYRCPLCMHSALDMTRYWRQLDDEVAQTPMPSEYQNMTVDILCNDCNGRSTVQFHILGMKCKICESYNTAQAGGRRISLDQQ

KHKLEQLRNSCA
binding to KLHDC10 in vitro [1]: did not bind
binding to Pirh2 in vitro [2]: did not bind
